The source of these data is publication PMC6457931 (Science Advances, 2019).

In one data set the target is 229E S protein (Human coronavirus 229E, UniProt P15423). Put plainly: cell-based. The arrangement: species or system HCoV-229E.
A further data set deals with NL63 S protein (Human coronavirus NL63, UniProt Q6Q1S2). Put plainly: cell-based. The arrangement: species or system HCoV-NL63.
The test system of data set [1] is S proteins of multiple HCoVs. The data set is classed as cell-based.
Another data set deals with pseudotyped 229E. The settings on record: 48 h.
In a further data set the test system is pseudotyped NL63. The settings on record: 48 h.
In a further data set the test system is pseudotyped OC43. The settings on record: 48 h.
For a further data set, the system named is OC43. The settings on record: read-out: IC50, live OC43 infection; HCT-8 cells, 100 TCID50, day 5.
For a further data set, the system named is NL63. The settings on record: read-out: IC50, live NL63 infection; LLC-MK2 cells.
The target in the next data set is OC43 S protein (Human coronavirus OC43, UniProt P36334). The experiment in a line: cell-based. The settings on record: Inhibitory activity of peptides, IC50, HCoV-OC43 cell-cell fusion assay.
OC43 S protein, sequence (P36334 14-1336 limits assumed): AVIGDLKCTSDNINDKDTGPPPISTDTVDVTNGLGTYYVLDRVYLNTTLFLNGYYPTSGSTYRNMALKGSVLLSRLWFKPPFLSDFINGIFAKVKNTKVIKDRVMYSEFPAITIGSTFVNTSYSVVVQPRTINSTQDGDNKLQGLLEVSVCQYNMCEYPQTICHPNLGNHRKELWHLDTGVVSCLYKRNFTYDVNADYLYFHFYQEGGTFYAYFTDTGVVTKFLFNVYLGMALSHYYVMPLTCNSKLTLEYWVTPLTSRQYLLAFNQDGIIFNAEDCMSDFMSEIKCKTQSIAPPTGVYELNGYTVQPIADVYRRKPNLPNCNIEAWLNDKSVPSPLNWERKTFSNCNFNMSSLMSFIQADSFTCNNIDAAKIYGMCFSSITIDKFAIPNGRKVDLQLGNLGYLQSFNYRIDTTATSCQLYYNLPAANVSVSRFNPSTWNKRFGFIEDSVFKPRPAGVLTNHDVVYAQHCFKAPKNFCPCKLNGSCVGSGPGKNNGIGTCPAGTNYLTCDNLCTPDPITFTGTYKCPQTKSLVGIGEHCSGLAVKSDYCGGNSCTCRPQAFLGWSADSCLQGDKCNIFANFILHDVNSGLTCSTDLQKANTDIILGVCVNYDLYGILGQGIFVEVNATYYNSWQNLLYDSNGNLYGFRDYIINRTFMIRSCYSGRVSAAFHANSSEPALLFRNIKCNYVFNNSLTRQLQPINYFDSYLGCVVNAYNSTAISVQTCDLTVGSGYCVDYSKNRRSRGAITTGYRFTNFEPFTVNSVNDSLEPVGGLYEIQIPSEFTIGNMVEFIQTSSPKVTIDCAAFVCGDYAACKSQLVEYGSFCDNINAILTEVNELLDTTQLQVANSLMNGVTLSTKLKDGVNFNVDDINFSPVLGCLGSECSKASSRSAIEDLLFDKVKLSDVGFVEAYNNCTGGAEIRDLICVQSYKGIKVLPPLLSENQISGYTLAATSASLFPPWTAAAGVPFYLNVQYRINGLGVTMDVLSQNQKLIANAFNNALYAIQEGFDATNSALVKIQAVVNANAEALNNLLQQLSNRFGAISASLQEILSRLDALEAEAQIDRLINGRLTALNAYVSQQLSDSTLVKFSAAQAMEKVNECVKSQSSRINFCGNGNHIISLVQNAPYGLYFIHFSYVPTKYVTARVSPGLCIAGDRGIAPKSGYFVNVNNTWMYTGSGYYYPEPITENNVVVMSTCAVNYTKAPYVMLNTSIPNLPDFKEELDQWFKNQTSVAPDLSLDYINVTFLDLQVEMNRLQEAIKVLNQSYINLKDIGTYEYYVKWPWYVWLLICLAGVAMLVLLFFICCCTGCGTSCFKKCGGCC
Data set [2] concerns the target HR1 domain of HCoV-229E S protein (residues 785 to 873) (HCoV-229E) (UniProt P15423).
Data set [3] has as its target HR1 domain of MERS-CoV S protein (residues 984 to 1062) (MERS-CoV) (UniProt K9N5Q8).
Data set [4] deals with HR1 domain of SARS-CoV S protein (residues 892 to 970) (SARS-CoV) (UniProt P59594).
Setting [5] is: high or low dose, before and 1, 3, 5 days after final treatment, P > 0.05.

229E S protein, sequence (P15423 16-1173 limits assumed): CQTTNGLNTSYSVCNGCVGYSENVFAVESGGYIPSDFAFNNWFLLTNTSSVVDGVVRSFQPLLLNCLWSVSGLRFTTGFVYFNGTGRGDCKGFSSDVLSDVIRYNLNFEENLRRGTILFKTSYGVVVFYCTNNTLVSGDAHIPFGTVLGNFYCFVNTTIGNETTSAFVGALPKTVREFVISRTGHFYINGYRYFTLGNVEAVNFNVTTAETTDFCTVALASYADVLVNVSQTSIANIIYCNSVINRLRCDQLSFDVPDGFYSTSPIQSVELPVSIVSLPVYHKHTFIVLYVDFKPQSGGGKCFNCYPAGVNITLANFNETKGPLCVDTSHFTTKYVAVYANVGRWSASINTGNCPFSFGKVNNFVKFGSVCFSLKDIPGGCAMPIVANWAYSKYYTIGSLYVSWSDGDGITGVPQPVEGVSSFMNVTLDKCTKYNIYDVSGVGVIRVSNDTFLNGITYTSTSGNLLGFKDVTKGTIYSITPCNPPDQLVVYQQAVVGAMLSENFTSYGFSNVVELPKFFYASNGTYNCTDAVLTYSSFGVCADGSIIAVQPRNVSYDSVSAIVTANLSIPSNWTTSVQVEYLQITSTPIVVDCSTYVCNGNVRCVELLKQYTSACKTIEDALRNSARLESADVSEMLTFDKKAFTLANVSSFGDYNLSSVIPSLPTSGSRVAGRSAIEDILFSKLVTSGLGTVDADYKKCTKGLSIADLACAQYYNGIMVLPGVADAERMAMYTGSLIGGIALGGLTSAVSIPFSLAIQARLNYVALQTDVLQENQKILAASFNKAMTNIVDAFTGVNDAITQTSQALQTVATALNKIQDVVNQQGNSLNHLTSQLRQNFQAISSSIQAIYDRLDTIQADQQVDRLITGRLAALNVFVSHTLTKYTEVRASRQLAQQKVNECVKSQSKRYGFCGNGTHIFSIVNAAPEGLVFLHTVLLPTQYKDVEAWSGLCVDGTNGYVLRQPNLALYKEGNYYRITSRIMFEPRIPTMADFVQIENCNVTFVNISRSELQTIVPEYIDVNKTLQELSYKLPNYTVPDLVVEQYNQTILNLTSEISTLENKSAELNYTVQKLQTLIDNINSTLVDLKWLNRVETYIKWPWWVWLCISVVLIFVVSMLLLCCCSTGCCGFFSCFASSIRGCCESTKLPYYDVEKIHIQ
NL63 S protein, sequence (Q6Q1S2 19-1338 limits assumed): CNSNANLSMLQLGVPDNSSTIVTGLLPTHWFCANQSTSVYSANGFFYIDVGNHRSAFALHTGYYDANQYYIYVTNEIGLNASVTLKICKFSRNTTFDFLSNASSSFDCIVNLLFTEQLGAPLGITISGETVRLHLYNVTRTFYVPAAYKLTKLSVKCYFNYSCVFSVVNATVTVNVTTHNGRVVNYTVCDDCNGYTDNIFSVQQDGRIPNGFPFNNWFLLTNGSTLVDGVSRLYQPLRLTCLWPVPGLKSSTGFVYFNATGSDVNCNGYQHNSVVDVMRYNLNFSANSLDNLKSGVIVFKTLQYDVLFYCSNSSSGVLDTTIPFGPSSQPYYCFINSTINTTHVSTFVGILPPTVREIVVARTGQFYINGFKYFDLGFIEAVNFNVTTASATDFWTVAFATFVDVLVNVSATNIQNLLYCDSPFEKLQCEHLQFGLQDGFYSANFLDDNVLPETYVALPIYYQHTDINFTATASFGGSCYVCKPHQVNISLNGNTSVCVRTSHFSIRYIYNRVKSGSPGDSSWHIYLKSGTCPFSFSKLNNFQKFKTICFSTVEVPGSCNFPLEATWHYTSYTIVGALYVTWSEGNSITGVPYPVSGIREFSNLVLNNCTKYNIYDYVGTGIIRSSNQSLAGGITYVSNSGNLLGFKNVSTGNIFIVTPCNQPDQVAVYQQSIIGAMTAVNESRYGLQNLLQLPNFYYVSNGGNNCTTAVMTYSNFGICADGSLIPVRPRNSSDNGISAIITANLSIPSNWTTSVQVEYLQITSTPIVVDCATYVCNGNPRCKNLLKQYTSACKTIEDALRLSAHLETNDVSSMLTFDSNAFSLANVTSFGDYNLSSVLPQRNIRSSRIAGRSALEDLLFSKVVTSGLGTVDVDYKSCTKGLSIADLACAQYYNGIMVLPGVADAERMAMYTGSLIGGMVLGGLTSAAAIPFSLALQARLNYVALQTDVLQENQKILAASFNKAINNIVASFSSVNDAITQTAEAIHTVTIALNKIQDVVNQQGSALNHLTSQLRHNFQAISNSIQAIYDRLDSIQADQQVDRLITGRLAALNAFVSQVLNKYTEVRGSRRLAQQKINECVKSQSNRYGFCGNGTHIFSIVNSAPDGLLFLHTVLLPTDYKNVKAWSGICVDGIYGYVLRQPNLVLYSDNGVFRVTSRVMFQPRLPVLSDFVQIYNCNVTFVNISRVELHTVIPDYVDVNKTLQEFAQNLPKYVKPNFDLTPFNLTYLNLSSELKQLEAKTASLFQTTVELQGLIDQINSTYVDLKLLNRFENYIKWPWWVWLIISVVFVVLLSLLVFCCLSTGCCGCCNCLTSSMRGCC
HR1 domain of HCoV-229E S protein (residues 785 to 873) (HCoV-229E), sequence (P15423 785-873): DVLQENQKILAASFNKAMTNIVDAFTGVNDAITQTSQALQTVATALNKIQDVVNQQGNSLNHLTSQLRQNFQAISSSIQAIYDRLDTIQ
HR1 domain of MERS-CoV S protein (residues 984 to 1062) (MERS-CoV), sequence (K9N5Q8 984-1062): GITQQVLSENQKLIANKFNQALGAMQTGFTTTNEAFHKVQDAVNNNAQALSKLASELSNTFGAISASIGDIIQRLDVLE

Consider `CC[C@H](C)[C@H](NC(=O)[C@H](C)NC(=O)[C@H](CC(=O)O)NC(=O)[C@H](CC(N)=O)NC(=O)[C@@H](NC(=O)CNC(=O)[C@@H](NC(=O)[C@H](Cc1ccccc1)NC(=O)[C@H](C)NC(=O)[C@H](CC(=O)O)NC(=O)[C@@H](NC(=O)[C@@H](NC(=O)[C@H](CC(N)=O)NC(=O)[C@@H](NC(=O)[C@H](CCSC)NC(=O)[C@H](C)NC(=O)[C@H](CCCCN)NC(=O)[C@H](CC(N)=O)NC(=O)[C@H](Cc1ccccc1)NC(=O)[C@H](CO)NC(=O)[C@H](C)NC(=O)[C@H](C)N)[C@@H](C)O)[C@@H](C)CC)C(C)C)[C@@H](C)O)C(C)C)C(=O)N[C@H](C(=O)N[C@@H](CCC(N)=O)C(=O)N[C@H](C(=O)N[C@@H](CO)C(=O)N[C@@H](CCC(N)=O)C(=O)N[C@@H](C)C(=O)N[C@@H](CC(C)C)C(=O)N[C@@H](CCC(N)=O)C(=O)N[C@H](C(=O)N[C@H](C(=O)N[C@@H](C)C(=O)N[C@H](C(=O)N[C@@H](C)C(=O)N[C@@H](CC(C)C)C(=O)N[C@@H](CC(N)=O)C(=O)N[C@@H](CCCCN)C(=O)N[C@H](C(=O)N[C@@H](CCC(N)=O)C(=O)N[C@@H](CC(=O)O)C(=O)N[C@H](C(=O)N[C@H](C(=O)N[C@@H](CC(N)=O)C(=O)N[C@@H](CCC(N)=O)C(=O)N[C@@H](CCC(N)=O)C(=O)NCC(=O)N[C@@H](CC(N)=O)C(=O)N[C@@H](CO)C(=O)N[C@@H](CC(C)C)C(=O)N[C@@H](CC(N)=O)C(=O)N[C@@H](Cc1c[nH]cn1)C(=O)N[C@@H](CC(C)C)C(=O)N[C@H](C(=O)N[C@@H](CO)C(=O)N[C@@H](CCC(N)=O)C(=O)O)[C@@H](C)O)C(C)C)C(C)C)[C@@H](C)CC)[C@@H](C)O)C(C)C)[C@@H](C)O)[C@@H](C)O)[C@@H](C)O` [229E-HR1P], for which the “Inhibitory effects on 229E-S-mediated cell-cell fusion” value at 229E S protein is given as “moderate inhibitory effects”. Moreover, the “Inhibitory effects on NL63-S-mediated cell-cell fusion” value at NL63 S protein is reported as “moderate inhibitory effects”.
As to `CC[C@H](C)[C@H](NC(=O)[C@H](CC(N)=O)NC(=O)[C@H](CC(=O)O)NC(=O)[C@@H](NC(=O)[C@H](CC(C)C)NC(=O)[C@@H](NC(=O)[C@H](CCC(N)=O)NC(=O)[C@H](CC(C)C)NC(=O)[C@H](CCCCN)NC(=O)[C@H](CCC(N)=O)NC(=O)[C@@H](NC(=O)[C@@H](NC(=O)[C@H](Cc1ccc(O)cc1)NC(=O)[C@H](CC(N)=O)NC(=O)[C@H](CC(C)C)NC(=O)[C@H](CCC(=O)O)NC(=O)[C@H](C)NC(=O)[C@H](CO)NC(=O)[C@H](CCCCN)NC(=O)[C@H](CC(N)=O)NC(=O)[C@H](CCC(=O)O)NC(=O)[C@H](CC(C)C)NC(=O)[C@@H](NC(=O)[C@H](CO)NC(=O)[C@@H](NC(=O)[C@H](CCC(=O)O)NC(=O)[C@H](CO)NC(=O)[C@@H](NC(=O)[C@H](CC(C)C)NC(=O)[C@H](CC(N)=O)NC(=O)[C@H](CC(C)C)NC(=O)[C@@H](NC(=O)[C@@H](NC(=O)[C@H](CCC(N)=O)NC(=O)[C@H](CC(N)=O)NC(=O)[C@H](Cc1ccc(O)cc1)NC(=O)[C@H](CCC(N)=O)NC(=O)[C@H](CCC(=O)O)NC(=O)[C@@H](NC(=O)[C@@H](N)C(C)C)C(C)C)[C@@H](C)O)[C@@H](C)CC)[C@@H](C)O)[C@@H](C)CC)[C@@H](C)O)[C@@H](C)O)C(C)C)[C@@H](C)O)[C@@H](C)CC)C(=O)N[C@@H](CC(N)=O)C(=O)N[C@@H](CO)C(=O)N[C@H](C(=O)N[C@@H](CC(C)C)C(=O)N[C@H](C(=O)N[C@@H](CC(=O)O)C(=O)N[C@@H](CC(C)C)C(=O)N[C@@H](CCCCN)C(=O)N[C@@H](Cc1c[nH]c2ccccc12)C(=O)N[C@@H](CC(C)C)C(=O)O)C(C)C)[C@@H](C)O` [229E-HR2P], the “Inhibitory activity against β-HCoVs (MERS-CoV, SARS-CoV, OC43) S-mediated fusion” value in [1] is given as “no effective inhibitory activity”. For the same compound, the IC50 (in general, the concentration that inhibits the measured activity by half) in the data set with 229E amounted to 560 nM.
With `CC[C@H](C)[C@H](NC(=O)[C@H](C)NC(=O)[C@H](CCC(=O)O)NC(=O)[C@H](CCC(=O)O)NC(=O)[C@H](CC(C)C)NC(=O)[C@H](CCCCN)NC(=O)[C@H](CCCCN)NC(=O)[C@H](CCSC)NC(=O)[C@H](CCC(=O)O)NC(=O)[C@H](Cc1ccc(O)cc1)NC(=O)[C@H](CCC(=O)O)NC(=O)[C@H](CC(C)C)NC(=O)[C@H](CC(=O)O)NC(=O)[C@H](CC(C)C)NC(=O)[C@H](Cc1ccccc1)NC(=O)[C@@H](NC(=O)[C@@H](NC(=O)[C@H](CC(N)=O)NC(=O)[C@@H](NC(=O)[C@H](CCC(N)=O)NC(=O)[C@H](CC(=O)O)NC(=O)[C@H](CC(C)C)NC(=O)[C@@H](N)CO)[C@@H](C)CC)C(C)C)[C@@H](C)O)C(=O)N[C@@H](CCCCN)C(=O)N[C@@H](CCCCN)C(=O)N[C@@H](CC(C)C)C(=O)N[C@@H](CCC(=O)O)C(=O)N[C@@H](CCC(=O)O)C(=O)N[C@@H](CO)C(=O)N[C@@H](Cc1ccc(O)cc1)C(=O)N[C@H](C(=O)N[C@@H](CC(=O)O)C(=O)N[C@@H](CC(C)C)C(=O)N[C@@H](CCCCN)C(=O)N[C@@H](CCC(=O)O)C(=O)N[C@@H](CC(C)C)C(=O)O)[C@@H](C)CC` [EK1], the IC50 was determined as 3350 nM in the data set with pseudotyped 229E; 6020 nM in the data set on pseudotyped NL63; 1810 nM with pseudotyped OC43; 620 nM with OC43; 690 nM in the data set on 229E; 480 nM with NL63. Also, the “EK1-specific antibodies in sera (ELISA)” value (2 weeks after intranasal administration) is “No EK1-specific antibodies were detected”. Where the note is “20 or 100 mg/kg intranasal every day for 1 week, followed 2 weeks”, the “weight gain/loss compared to PBS-treated mice” value is “no apparent difference”. The “histopathology of lung, liver, kidney, and spleen sections” value (hematoxylin and eosin, 4 weeks after administration) is “no pathological abnormality”. Under setting [5], the “alanine aminotransferase (ALT) in sera versus PBS-treated group” value is “no significant difference”. Further, under setting [5], the “creatinine in sera versus PBS-treated group” value is “no significant difference”.
Take `CC[C@H](C)[C@H](NC(=O)[C@H](CC(C)C)NC(=O)CNC(=O)[C@H](CCC(N)=O)NC(=O)[C@H](CC(C)C)NC(=O)[C@H](CCC(=O)O)NC(=O)[C@@H](NC(=O)[C@@H](NC(=O)[C@@H](NC(=O)[C@H](CCC(N)=O)NC(=O)[C@H](Cc1ccccc1)NC(=O)[C@H](CC(C)C)NC(=O)[C@H](CO)NC(=O)[C@H](C)NC(=O)[C@@H](NC(=O)[C@H](CCCCN)NC(=O)[C@H](C)NC(=O)[C@H](CCC(=O)O)NC(=O)[C@H](CC(C)C)NC(=O)[C@H](CCC(N)=O)NC(=O)[C@H](CCCCN)NC(=O)[C@H](CC(C)C)NC(=O)[C@H](CCC(=O)O)NC(=O)[C@H](CO)NC(=O)[C@H](CO)NC(=O)[C@H](CC(C)C)NC(=O)[C@H](CC(N)=O)NC(=O)[C@H](CC(C)C)NC(=O)[C@H](Cc1ccc(O)cc1)NC(=O)[C@@H](NC(=O)[C@H](CC(C)C)NC(=O)[C@H](CC(N)=O)NC(=O)[C@H](Cc1ccccc1)NC(=O)[C@@H]1CCCN1C(=O)[C@@H](NC(=O)[C@H](CC(C)C)NC(=O)[C@@H](N)CC(=O)O)[C@@H](C)O)[C@@H](C)O)[C@@H](C)O)[C@@H](C)O)[C@@H](C)O)C(C)C)C(=O)N[C@@H](CC(=O)O)C(=O)N[C@@H](CCC(N)=O)C(=O)N[C@H](C(=O)N[C@@H](CC(N)=O)C(=O)N[C@@H](CO)C(=O)N[C@H](C(=O)N[C@@H](Cc1ccc(O)cc1)C(=O)N[C@H](C(=O)N[C@@H](CC(=O)O)C(=O)N[C@@H](CC(C)C)C(=O)N[C@@H](CCCCN)C(=O)N[C@@H](CC(C)C)C(=O)N[C@@H](CC(C)C)C(=O)O)C(C)C)[C@@H](C)O)[C@@H](C)CC` [NL63-HR2P]: the “Inhibitory activity against β-HCoVs (MERS-CoV, SARS-CoV, OC43) S-mediated fusion” value in data set [1] is reported as “no effective inhibitory activity”.
`CC[C@H](C)[C@H](NC(=O)[C@H](CC(=O)O)NC(=O)[C@H](CCCCN)NC(=O)[C@H](CC(C)C)NC(=O)[C@H](CC(N)=O)NC(=O)[C@@H](NC(=O)[C@H](Cc1ccc(O)cc1)NC(=O)[C@H](CO)NC(=O)[C@H](CCC(N)=O)NC(=O)[C@H](CC(N)=O)NC(=O)[C@H](CC(C)C)NC(=O)[C@@H](NC(=O)[C@H](CCCCN)NC(=O)[C@@H](NC(=O)[C@H](C)NC(=O)[C@H](CCC(=O)O)NC(=O)[C@H](CCC(N)=O)NC(=O)[C@H](CC(C)C)NC(=O)[C@H](CCCNC(=N)N)NC(=O)[C@H](CC(N)=O)NC(=O)[C@H](CCSC)NC(=O)[C@H](CCC(=O)O)NC(=O)[C@H](CC(=O)O)NC(=O)[C@H](CCC(N)=O)NC(=O)[C@H](CC(C)C)NC(=O)[C@H](CC(=O)O)NC(=O)[C@H](CC(C)C)NC(=O)[C@H](Cc1ccccc1)NC(=O)[C@@H](NC(=O)[C@@H](NC(=O)[C@H](CC(N)=O)NC(=O)[C@@H](NC(=O)[C@H](Cc1ccc(O)cc1)NC(=O)[C@H](CC(=O)O)NC(=O)[C@H](CC(C)C)NC(=O)[C@@H](N)CO)[C@@H](C)CC)C(C)C)[C@@H](C)O)[C@@H](C)CC)C(C)C)[C@@H](C)CC)C(=O)O` [OC43-HR2P]: the IC50 came out at 840 nM on 229E S protein (Inhibitory activity of peptides, IC50, HCoV-229E cell-cell fusion assay); 940 nM on NL63 S protein (Inhibitory activity of peptides, IC50, HCoV-NL63 cell-cell fusion assay); 660 nM on OC43 S protein; 930 nM in the data set with OC43.
In data set [2], OC43-HR2P (peptide) showed an IC50 of inhibition of 229E S-mediated cell-cell fusion of 840 nM. The compound further had an IC50 of inhibition of MERS-CoV S-mediated cell-cell fusion in data set [3] of 390 nM. The compound also had an IC50 of inhibition of SARS-CoV S-mediated cell-cell fusion in data set [4] of 540 nM.
